According to patent US20070026042A1, “System for treating aneurysmal disease” (priority 2005, published 2007):
pIC50: −log10 of the molar value. Values belong to the molecule of their own block, whether it stands above or below them.

Experiments:
[1] = system: infrarenal abdominal aorta; assay: Elastase-induced abdominal aortic aneurysm model in rats; format: in vivo, Wistar rats; details: for relative efficacy in suppressing aneurysmal dilatation compared to Dox at the same dose / inhibition of aortic dilatation induced by elastase perfusion: 15 mg/kg/day; for inhibition of aortic dilatation induced by elastase perfusion: vs saline, Student's t-test
From the text: Male Wistar rats (350-400 g) were subjected to perfusion of an isolated segment of the infrarenal abdominal aorta with 50 units of porcine pancreatic elastase, using the method described by Anidjar. et al. (Anidjar, S, Salzmann, J L, Generic, D, Lagneau, P, Camilleri, J P, and Michel, J B, “Elastase induced experimental aneurysms in rats,” Circulation 82:973-981 (1990); Halpern et al. (Halpern, V J. Liao, Nackman, G B, Gandhi, R H, Irizarry, E, Scholes, J V, Ramey, W G, and Tilson, M D, “The elastase infusion model of experimental aortic aneurysms: Synchrony of induction of endogenous protinases with matrix destruction and inflammatory cell response,” J. Vasc. Surg. […] Surg 23:336-346 (1996)). This method is an accepted model for experimental induction of abdominal aortic aneurysms. The animals (n=6 rats in each group) were then treated with twice-daily subcutaneous injections of either saline vehicle (control), or various doses of doxycycline (Dox) or one of four different, non-antibiotic, chemically-modified tetracyclines (CMTs; CollaGenex, Inc., Newtown, Pa.). Aortic diameter (AD) was measured with microcalipers before and after elastase perfusion, and just prior to sacrifice on day 7. Abdominal aortic aneurysms were defined as an increase in final AD to at least twice that measured before perfusion (≥ 100% increase). Aortic tissues from two animals in each group were perfusion-fixed with 10% neutral buffered formalin, embedded in paraffin, and stained with Verhoeff-van Geisen (WG) for elastin. Tissues from the remaining animals were extracted, normalized to total protein, and analyzed by gelatin substrate zymography as described (Thompson et al. 1995; Halpern et al. 1994; Petrinec 1996).
For saline-treated control animals, mean AD increased by 125.±.18%, and 5 of the 6 (83%) of the animals had abdominal aortic aneurysms as defined.

[2] = Liquid formulations of sirolimus and analogs: drug concentration by liquid chromatography, visual observation; format: physicochemical; details: Vitamin E TPGS, water, ethanol less than two percent
Description: Certain excipients, such as Vitamin E TPGS and BHT may be utilized to enhance the storage stability of sirolimus compounds through their anti-oxidation properties.
The concentrations of each constituent were determined by liquid chromatography and are presented as weight by volume figures.
In another exemplary embodiment, the liquid formulation of sirolimus comprises water and ethanol as co-solvents and Vitamin E TPGS as the excipient. The liquid formulation was created utilizing the following process. Two hundred milligrams of sirolimus and two grams of ethanol were added to a pre-weighed twenty milliliter scintillation vial. The vial was vortexed and sonicated until the sirolimus was completely dissolved. Approximately six hundred milligrams of Vitamin E TPGS was then added to the solution of ethanol and sirolimus. The vial was vortexed again until a clear yellowish solution was obtained. Nitrogen gas was then used to reduce the amount of ethanol in the vial to approximately two hundred twenty-nine milligrams. In a separate vial, three hundred milligrams of Vitamin E TPGS was dissolved in eleven milliliters of purified water while undergoing vortexing. The Vitamin E TPGS and water solution was then added to the first vial containing the sirolimus, Vitamin E TPGS and ethanol. The first vial was then vortexed vigorously and continuously for three minutes. […]

[3] = system: human coronary artery smooth muscle cells; assay: Anti-proliferative activity in cultured human coronary artery smooth muscle cells; format: cell-based
From the text: The multiple curves represent various concentrations of mycophenolic acid ranging from zero to one thousand nanomolar concentrations.
FIG. […]
The multiple curves represent various concentrations of cladribine ranging from zero to nine hundred nanomolar concentrations.
(§1) The multiple curves represent various concentrations of topotecan ranging from zero to three hundred nanomolar concentrations.
(§2) The multiple curves represent various concentrations of etoposide ranging from zero to eight hundred nanomolar concentrations.
The multiple curves represent various concentrations of Panzem® ranging from zero to 100 micromolar concentrations.

[4] = system: human coronary artery smooth muscle cell; assay: MTS cytotoxicity assay; format: cell-based; details: 6.6 nanomolar to 30,000.00 nanomolar, FIG. 69
From the text: Typically, a control is utilized to determine baseline toxicity.

[5] = Cell viability assay (cytotoxicity); format: cell-based
From the text: as §1, §2

tumor cell lines = details: Woo et al., J. Med Chem 2002; cited from earlier work
[6] = non-synchronized cells, two percent fetal bovine serum
[7] = synchronized cells, two percent fetal bovine serum

Molecule: 4-dedimethylamino-12a-deoxytetracycline [CMT-7]
- relative efficacy in suppressing aneurysmal dilatation compared to Dox at the same dose [1]: 92%
- inhibition of aortic dilatation induced by elastase perfusion [1]: statistically significant

- concentration of CCI-779 in the final solution (HPLC) [2]: 15000 µg/mL
Molecule: CO[C@H]1C[C@@H]2CC[C@@H](C)[C@@](O)(O2)C(=O)C(=O)N2CCCC[C@H]2C(=O)O[C@H]([C@H](C)C[C@@H]2CC[C@@H](OC(=O)C(C)(CO)CO)[C@H](OC)C2)CC(=O)[C@H](C)/C=C(\C)[C@@H](O)[C@@H](OC)C(=O)[C@H](C)C[C@H](C)/C=C/C=C/C=C/1C [CCI-779]

Molecule: NC(=O)C1=C(O)C[C@@H]2C[C@@H]3Cc4cccc(O)c4C(=O)C3=C(O)[C@]2(O)C1=O [CMT-3, 6-demethyl-6-deoxy 4-dedimethylaminotetracycline]
- relative efficacy in suppressing aneurysmal dilatation compared to Dox at the same dose [1]: 92%
- inhibition of aortic dilatation induced by elastase perfusion [1]: statistically significant

Molecule: CC1(O)c2c(Cl)ccc(O)c2C(=O)C2=C(O)C3(O)C(=O)C(C(N)=O)=C(O)CC3CC21 (stereo not drawn) [CMT-4, 4-dedimethylamino-7-chlorotetra-cycline]
- relative efficacy in suppressing aneurysmal dilatation compared to Dox at the same dose [1]: 75%
- inhibition of aortic dilatation induced by elastase perfusion [1]: did not reach statistical significance

Molecule: C[C@H]1c2cccc(O)c2C(O)=C2C(=O)[C@]3(O)C(O)=C(C(N)=O)C(=O)C[C@@H]3[C@@H](O)[C@@H]21 [CMT-8, 6-α-deoxy-5-hydroxy-4-dedimethylaminotetracycline]
- relative efficacy in suppressing aneurysmal dilatation compared to Dox at the same dose [1]: 105%
- inhibition of aortic dilatation induced by elastase perfusion [1]: statistically significant

Molecule: Nc1nc(Cl)nc2c1ncn2[C@H]1C[C@H](O)[C@@H](CO)O1 [Cladribine, 2-chlorodeoxyadenosine]
- inhibition of human coronary artery smooth muscle cell proliferation ([3]; non-synchronized cells stimulated with two percent fetal bovine serum, FIG. 58): completely inhibits
- effect of addition to rapamycin-treated cells on the anti-proliferative rapamycin dose response curve [3, 6]: leftward and upward shift

Molecule: C[C@H]1c2cccc(O)c2C(=O)C2=C(O)[C@]3(O)C(=O)C(C(N)=O)=C(O)[C@@H](N(C)C)[C@@H]3[C@@H](O)[C@@H]21 [Dox, doxycycline]
- aortic dilatation (mean increase in aortic diameter) ([1]; 60 mg/kg/day, twice-daily subcutaneous injections, day 7, saline control 125.±.18%): 61.±.7%
- dose of maximal inhibition of aortic dilatation ([1]; dose-dependent effect, FIG. 76): about 12.5 mg/kg/day

Molecule: COc1cc2c(cc1O)CC[C@@H]1[C@@H]2CC[C@]2(C)[C@@H](O)CC[C@@H]12 [Panzem®, 2-methoxyestradiol]
- cell survival in MTS assay [4]: do not reduce human coronary artery smooth muscle cell survival
- effect of addition to rapamycin-treated cells on the anti-proliferative rapamycin dose response curve [3, 7]: increases the percent of inhibition of rapamycin alone
- inhibition of human coronary artery smooth muscle cell proliferation in vitro ([3]; synchronized cells, two percent fetal bovine serum, FIG. 66): extremely effective inhibitor

Molecule: COc1cc([C@@H]2c3cc4c(cc3[C@@H](O[C@@H]3O[C@@H]5CO[C@@H](C)O[C@H]5[C@H](O)[C@H]3O)[C@H]3COC(=O)[C@H]23)OCO4)cc(OC)c1O [etoposide]
- cytotoxicity in cell viability assay ([5]; concentrations up to ten micromolar): non-cytotoxic
- effect of addition to rapamycin-treated cells on the anti-proliferative rapamycin dose response curve [3, 6]: leftward and upward shift

Molecule: COc1c(C)c2c(c(O)c1C/C=C(\C)CCC(=O)O)C(=O)OC2 [mycophenolic acid]
- effect of addition to rapamycin-treated cells on the anti-proliferative rapamycin dose response curve [3, 6]: leftward and upward shift

Molecule: CC[C@@]1(O)C(=O)OCc2c1cc1n(c2=O)Cc2cc3c(CN(C)C)c(O)ccc3nc2-1 [topotecan]
- cytotoxicity in cell viability assay ([5]; concentrations up to one micromolar): non-cytotoxic
- effect of addition to rapamycin-treated cells on the anti-proliferative rapamycin dose response curve [3, 7]: leftward and upward shift

Molecule: CC(/C=C/C(=O)NO)=C\[C@@H](C)C(=O)c1ccc(N(C)C)cc1 [trichostatin A]
- anti-proliferative IC50's (tumor cell lines): low nM range
- pIC50 ([3]; in vitro cell culture studies): ~8.22
- inhibition of human coronary artery smooth muscle cell proliferation ([3]; in vitro cell culture studies, FIG. 51): completely inhibit
